According to patent US20250122225A1, “MASP-2 INHIBITORS AND METHODS OF USE” (Omeros Corporation, priority 2023, published 2025):
Where a name gives a salt, the structure may show the parent alone.

Legend:
human α-thrombin = biological target: T1, human α-thrombin (Homo sapiens, UniProt P00734); assay: Enzymatic assay for thrombin (fluorogenic peptide substrate Boc-VPR-AMC); assay type: biochemical
T1 construct: enzyme (human α-thrombin (BioPharm® Lab.)) in assay buffer; purchased BioPharm® Lab
Experimental: The thrombin assay utilizes a fluorogenic peptide substrate (Boc-VPR-AMC (R&D Systems) and was run at room temperature in an assay buffer containing 20 mM Hepes, pH 7.4, 140 mM NaCl and 0.1% Tween 20. Assay parameters were adjusted such that the assay was linear with respect to time, enzyme, and substrate concentrations. Under these optimized assays conditions, IC50 values were equivalent to Ki values, except in a few cases of “tight binding” inhibitors. Cases of “tight binding” or possible “slow binding” inhibitors were handled by the methods described in Copeland R. A. (2013) Evaluation of Enzyme Inhibitors in Drug Discovery. 2nd Ed. John Wiley and Sons, Inc., Chapters 5-7.
The thrombin assay protocol was carried out as follows. Test compounds were serially diluted in DMSO and then 100 nL of each dilution was transferred to the assay plate(s). 10 μL of Assay Buffer was added, followed by 15 μL of enzyme (human α-thrombin (BioPharm® Lab.)) in assay buffer. 15 μL of substrate in assay buffer was then added and the sample mixed to start the reaction. After 20 min at room temperature, 15 μL of a stop solution (0.1 M acetic acid) was added, the sample was mixed, and the plates were read on a SpectraMax® i3x Microplate Reader with the data exported as Excel files. Each assay plate included a “no inhibitor” (DMSO only) control, a “no enzyme” control, and a reference inhibitor control. % Activity values=100*(ave. test comp. fluorescence−ave. “no enz” fluorescence)/(ave. “DMSO only” fluorescence−ave. “no enz” fluorescence). IC50 and Ki values were very reproducible, with values falling well within ±2-fold.

MASP-2 (CCP1-CCP2-SP) = biological target: T2, MASP-2 (CCP1-CCP2-SP) (Homo sapiens, UniProt O00187); assay: Enzymatic assay for MASP-2 inhibitory activity (fluorogenic substrate); assay type: biochemical
T2 construct: 15 μL of Enzyme MASP-2 (CCP1-CCP2-SP) in Assay Buffer
T2 sequence (O00187 445-686 limits assumed): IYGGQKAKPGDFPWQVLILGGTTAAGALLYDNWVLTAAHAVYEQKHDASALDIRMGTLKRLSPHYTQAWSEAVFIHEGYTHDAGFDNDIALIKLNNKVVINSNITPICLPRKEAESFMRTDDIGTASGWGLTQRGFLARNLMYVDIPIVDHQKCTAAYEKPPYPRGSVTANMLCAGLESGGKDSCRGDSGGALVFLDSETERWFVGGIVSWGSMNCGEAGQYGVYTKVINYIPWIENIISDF
T2 sequence (O00187 287-444 partner limits assumed): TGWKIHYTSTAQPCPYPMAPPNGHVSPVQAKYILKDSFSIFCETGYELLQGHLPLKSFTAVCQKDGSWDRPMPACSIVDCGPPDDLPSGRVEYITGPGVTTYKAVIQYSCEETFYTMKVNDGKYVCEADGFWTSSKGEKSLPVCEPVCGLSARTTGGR
Experimental: The MASP-2 assay utilizes a fluorogenic substrate, based on the cleavage site for its natural substrate C2. The assay was run at room temperature in an assay buffer containing 20 mM HEPES, pH 7.4, 140 mM NaCl and 0.1% Tween 20. Assay parameters were adjusted such that the assay was linear with respect to time, enzyme, and substrate concentrations. Under the optimized assays conditions, IC50 values were equivalent to Ki values, except in the few cases of “tight binding” inhibitors. Cases of “tight binding” or possible “slow binding” inhibitors were handled by the methods described in Copeland R. A. (2013) Evaluation of Enzyme Inhibitors in Drug Discovery. 2nd Ed., John Wiley and Sons, Inc., Chapters 5-7.
The MASP-2 assay protocol was carried out as follows. Test compounds were serially diluted in DMSO and then 100 nL of each dilution was transferred to the assay plate(s). 10 μL of Assay Buffer was added, followed by 15 μL of Enzyme MASP-2 (CCP1-CCP2-SP) in Assay Buffer. 15 μL of Substrate in Assay Buffer was then added and the mixture was mixed to start the reaction. After 20 min at room temperature, 15 μL of a stop solution (0.1 M acetic acid) was added, the sample was mixed, and the plates were read on a SpectraMax i3x Microplate Reader with the data exported as an Excel file. Each assay plate included a “no inhibitor” (DMSO only) control, a “no enzyme” control, and a reference inhibitor control. % Activity values=100*(average test comp. fluorescence−average “no enzyme” fluorescence)/(average “DMSO only” fluorescence−average “no enzyme” fluorescence). IC50 and Ki replicate values were very reproducible, with values well within ±2-fold.

Cc1cc(C)cc(CNc2ncc3n(c2=O)[C@H](C(=O)NC(C)c2cc(Cl)ccc2-n2cnnn2)CC3)c1 (mixture of isomers) [Compound 283, (S)—N—((R/S)-1-(5-chloro-2-(1H-tetrazol-1-yl)phenyl)ethyl)-3-((3,5-dimethylbenzyl)amino)-4-oxo-4,6,7,8-tetrahydropyrrolo[1,2-a]pyrazine-6-carboxamide]
Ki (human α-thrombin): < 0.5 µM | Ki (MASP-2 (CCP1-CCP2-SP)): < 0.5 µM

Cc1cc(C)cc(CNc2nc(Cl)c3n(c2=O)[C@H](C(=O)NCc2cc4cnccc4[nH]2)CC3)c1 [Compound 1, (S)—N-((1H-pyrrolo[3,2-c]pyridin-2-yl)methyl)-1-chloro-3-((3,5-dimethylbenzyl)amino)-4-oxo-4,6,7,8-tetrahydropyrrolo[1,2-a]pyrazine-6-carboxamide]
Ki (human α-thrombin): 10 to 25 µM | Ki (MASP-2 (CCP1-CCP2-SP)): < 0.5 µM

COCCCCNc1nc(Cl)c2n(c1=O)[C@H](C(=O)NCc1ccc(N)nc1C)CC2 [Compound 2, (S)-N-((6-amino-2-methylpyridin-3-yl)methyl)-1-chloro-3-((4-methoxybutyl)amino)-4-oxo-4,6,7,8-tetrahydropyrrolo[1,2-a]pyrazine-6-carboxamide]
Ki (human α-thrombin): 2.5 to 10 µM | Ki (MASP-2 (CCP1-CCP2-SP)): < 0.5 µM

CCc1cccc(CNc2nc(Cl)c3n(c2=O)[C@H](C(=O)NCc2cc4cnccc4[nH]2)CC3)c1 [Compound 3, (S)-N-((1H-pyrrolo[3,2-c]pyridin-2-yl)methyl)-1-chloro-3-((3-ethylbenzyl)amino)-4-oxo-4,6,7,8-tetrahydropyrrolo[1,2-a]pyrazine-6-carboxamide]
Ki (human α-thrombin): 2.5 to 10 µM | Ki (MASP-2 (CCP1-CCP2-SP)): < 0.5 µM

CCc1cccc(CNc2nc(Cl)c3n(c2=O)[C@H](C(=O)NCc2ccc(N)nc2C)CC3)c1 [Compound 4]
Ki (human α-thrombin): 0.5 to 2.5 µM | Ki (MASP-2 (CCP1-CCP2-SP)): < 0.5 µM

Cc1nc(N)ccc1CNC(=O)[C@@H]1CCc2c(Cl)nc(NCc3cccc(CO)c3)c(=O)n21 [Compound 5, (S)-N-((6-amino-2-methylpyridin-3-yl)methyl)-1-chloro-3-((3-(hydroxymethyl)benzyl)amino)-4-oxo-4,6,7,8-tetrahydropyrrolo[1,2-a]pyrazine-6-carboxamide]
Ki (human α-thrombin): 0.5 to 2.5 µM | Ki (MASP-2 (CCP1-CCP2-SP)): < 0.5 µM

O=C(NCc1cc2cnccc2[nH]1)[C@@H]1CCc2c(Cl)nc(NCc3cccc(CO)c3)c(=O)n21 [Compound 6, (S)-N-((1H-pyrrolo[3,2-c]pyridin-2-yl)methyl)-1-chloro-3-((3-(hydroxymethyl)benzyl)amino)-4-oxo-4,6,7,8-tetrahydropyrrolo[1,2-a]pyrazine-6-carboxamide]
Ki (human α-thrombin): 2.5 to 10 µM | Ki (MASP-2 (CCP1-CCP2-SP)): < 0.5 µM

COc1cc(C)cc(CNc2nc(Cl)c3n(c2=O)[C@H](C(=O)NCc2cc4cnccc4[nH]2)CC3)c1 [Compound 7, (S)-N-((1H-pyrrolo[3,2-c]pyridin-2-yl)methyl)-1-chloro-3-((3-methoxy-5-methylbenzyl)amino)-4-oxo-4,6,7,8-tetrahydropyrrolo[1,2-a]pyrazine-6-carboxamide]
Ki (human α-thrombin): 2.5 to 10 µM | Ki (MASP-2 (CCP1-CCP2-SP)): < 0.5 µM

COc1cc(C)cc(CNc2nc(Cl)c3n(c2=O)[C@H](C(=O)NCc2ccc(N)nc2C)CC3)c1 [Compound 8, (S)-N-((6-amino-2-methylpyridin-3-yl)methyl)-1-chloro-3-((3-methoxy-5-methylbenzyl)amino)-4-oxo-4,6,7,8-tetrahydropyrrolo[1,2-a]pyrazine-6-carboxamide]
Ki (human α-thrombin): 0.5 to 2.5 µM | Ki (MASP-2 (CCP1-CCP2-SP)): < 0.5 µM

Cc1ccccc1CNc1nc(Cl)c2n(c1=O)[C@H](C(=O)NCc1cc3cnccc3[nH]1)CC2 [Compound 9, (S)-N-((1H-pyrrolo[3,2-c]pyridin-2-yl)methyl)-1-chloro-3-((2-methylbenzyl)amino)-4-oxo-4,6,7,8-tetrahydropyrrolo[1,2-a]pyrazine-6-carboxamide]
Ki (human α-thrombin): 2.5 to 10 µM | Ki (MASP-2 (CCP1-CCP2-SP)): < 0.5 µM

Cc1ccc(C)c(CNc2nc(Cl)c3n(c2=O)[C@H](C(=O)NCc2ccc(N)nc2C)CC3)c1 [Compound 10, (S)-N-((6-amino-2-methylpyridin-3-yl)methyl)-1-chloro-3-((2,5-dimethylbenzyl)amino)-4-oxo-4,6,7,8-tetrahydropyrrolo[1,2-a]pyrazine-6-carboxamide]
Ki (human α-thrombin): 0.5 to 2.5 µM | Ki (MASP-2 (CCP1-CCP2-SP)): < 0.5 µM

Cc1ccc(C)c(CNc2nc(Cl)c3n(c2=O)[C@H](C(=O)NCc2cc4cnccc4[nH]2)CC3)c1 [Compound 11, (S)-N-((1H-pyrrolo[3,2-c]pyridin-2-yl)methyl)-1-chloro-3-((2,5-dimethylbenzyl)amino)-4-oxo-4,6,7,8-tetrahydropyrrolo[1,2-a]pyrazine-6-carboxamide]
Ki (human α-thrombin): 10 to 25 µM | Ki (MASP-2 (CCP1-CCP2-SP)): < 0.5 µM

Cc1cccc(CNc2nc(Cl)c3n(c2=O)[C@H](C(=O)NCc2ccc(N)nc2C)CC3)c1F [Compound 12, (S)-N-((6-amino-2-methylpyridin-3-yl)methyl)-1-chloro-3-((2-fluoro-3-methylbenzyl)amino)-4-oxo-4,6,7,8-tetrahydropyrrolo[1,2-a]pyrazine-6-carboxamide]
Ki (human α-thrombin): 2.5 to 10 µM | Ki (MASP-2 (CCP1-CCP2-SP)): < 0.5 µM

Cc1cccc(CNc2nc(Cl)c3n(c2=O)[C@H](C(=O)NCc2cc4cnccc4[nH]2)CC3)c1F [Compound 13, (S)-N-((1H-pyrrolo[3,2-c]pyridin-2-yl)methyl)-1-chloro-3-((2-fluoro-3-methylbenzyl)amino)-4-oxo-4,6,7,8-tetrahydropyrrolo[1,2-a]pyrazine-6-carboxamide]
Ki (human α-thrombin): 10 to 25 µM | Ki (MASP-2 (CCP1-CCP2-SP)): < 0.5 µM

Cc1cccc(CNc2nc(Cl)c3n(c2=O)[C@H](C(=O)NCc2cc4cnccc4[nH]2)CC3)c1C [Compound 15, (S)-N-((1H-pyrrolo[3,2-c]pyridin-2-yl)methyl)-1-chloro-3-((2,3-dimethylbenzyl)amino)-4-oxo-4,6,7,8-tetrahydropyrrolo[1,2-a]pyrazine-6-carboxamide]
Ki (human α-thrombin): 2.5 to 10 µM | Ki (MASP-2 (CCP1-CCP2-SP)): < 0.5 µM

Cc1nc(N)ccc1CNC(=O)[C@@H]1CCc2c(Cl)nc(NCc3cccc(C(F)F)c3)c(=O)n21 [Compound 16, (S)-N-((6-amino-2-methylpyridin-3-yl)methyl)-1-chloro-3-((3-(difluoromethyl)benzyl)amino)-4-oxo-4,6,7,8-tetrahydropyrrolo[1,2-a]pyrazine-6-carboxamide]
Ki (human α-thrombin): 2.5 to 10 µM | Ki (MASP-2 (CCP1-CCP2-SP)): < 0.5 µM

O=C(NCc1cc2cnccc2[nH]1)[C@@H]1CCc2c(Cl)nc(NCc3cccc(C(F)F)c3)c(=O)n21 [Compound 17, (S)-N-((1H-pyrrolo[3,2-c]pyridin-2-yl)methyl)-1-chloro-3-((3-(difluoromethyl)benzyl)amino)-4-oxo-4,6,7,8-tetrahydropyrrolo[1,2-a]pyrazine-6-carboxamide]
Ki (human α-thrombin): 10 to 25 µM | Ki (MASP-2 (CCP1-CCP2-SP)): < 0.5 µM

Cc1nc(N)ccc1CNC(=O)[C@@H]1CCc2c(Cl)nc(NCCC(F)F)c(=O)n21 [Compound 18, (S)-N-((6-amino-2-methylpyridin-3-yl)methyl)-1-chloro-3-((3,3-difluoropropyl)amino)-4-oxo-4,6,7,8-tetrahydropyrrolo[1,2-a]pyrazine-6-carboxamide]
Ki (human α-thrombin): 2.5 to 10 µM | Ki (MASP-2 (CCP1-CCP2-SP)): < 0.5 µM

COc1ccnc(CNC(=O)[C@@H]2CCc3cnc(NCc4cc(C)cc(F)c4)c(=O)n32)c1F [Compound 190, (S)-N-((3-fluoro-4-methoxypyridin-2-yl)methyl)-3-((3-fluoro-5-methylbenzyl)amino)-4-oxo-4,6,7,8-tetrahydropyrrolo[1,2-a]pyrazine-6-carboxamide trifluoroacetate]
Ki (human α-thrombin): 2.5 to 10 µM
